The source of these data is ChEMBL document CHEMBL3991601, “The target landscape of clinical kinase drugs” (Science, 2017).

SMILES strings stand for the structures. Active and inactive are the calls of the source. Cut-off read from the data, not from the text of the source, for most assays here: actives have a measured Kd and inactives only a lower limit.

In test [1] the target is T1, Membrane-associated tyrosine- and threonine-specific cdc2-inhibitory kinase (Homo sapiens, UniProt Q99640).
T1 sequence (Q99640 whole entry): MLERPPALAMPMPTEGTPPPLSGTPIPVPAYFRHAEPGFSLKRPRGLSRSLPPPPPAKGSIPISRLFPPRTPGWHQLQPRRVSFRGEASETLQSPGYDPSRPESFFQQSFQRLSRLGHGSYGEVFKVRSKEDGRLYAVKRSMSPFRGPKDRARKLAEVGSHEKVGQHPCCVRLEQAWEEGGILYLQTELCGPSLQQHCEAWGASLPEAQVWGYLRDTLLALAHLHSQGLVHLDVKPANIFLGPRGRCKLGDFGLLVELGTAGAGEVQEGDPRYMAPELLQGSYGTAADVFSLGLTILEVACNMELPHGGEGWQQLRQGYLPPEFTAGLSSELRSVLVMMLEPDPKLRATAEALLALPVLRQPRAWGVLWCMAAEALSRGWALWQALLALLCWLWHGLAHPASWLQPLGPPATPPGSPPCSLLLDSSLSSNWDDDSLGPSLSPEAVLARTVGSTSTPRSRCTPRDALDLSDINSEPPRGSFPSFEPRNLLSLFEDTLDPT

The target in test [2] is T2, Structural maintenance of chromosomes protein 1A (Homo sapiens, UniProt Q14683).
T2 sequence (Q14683 whole entry): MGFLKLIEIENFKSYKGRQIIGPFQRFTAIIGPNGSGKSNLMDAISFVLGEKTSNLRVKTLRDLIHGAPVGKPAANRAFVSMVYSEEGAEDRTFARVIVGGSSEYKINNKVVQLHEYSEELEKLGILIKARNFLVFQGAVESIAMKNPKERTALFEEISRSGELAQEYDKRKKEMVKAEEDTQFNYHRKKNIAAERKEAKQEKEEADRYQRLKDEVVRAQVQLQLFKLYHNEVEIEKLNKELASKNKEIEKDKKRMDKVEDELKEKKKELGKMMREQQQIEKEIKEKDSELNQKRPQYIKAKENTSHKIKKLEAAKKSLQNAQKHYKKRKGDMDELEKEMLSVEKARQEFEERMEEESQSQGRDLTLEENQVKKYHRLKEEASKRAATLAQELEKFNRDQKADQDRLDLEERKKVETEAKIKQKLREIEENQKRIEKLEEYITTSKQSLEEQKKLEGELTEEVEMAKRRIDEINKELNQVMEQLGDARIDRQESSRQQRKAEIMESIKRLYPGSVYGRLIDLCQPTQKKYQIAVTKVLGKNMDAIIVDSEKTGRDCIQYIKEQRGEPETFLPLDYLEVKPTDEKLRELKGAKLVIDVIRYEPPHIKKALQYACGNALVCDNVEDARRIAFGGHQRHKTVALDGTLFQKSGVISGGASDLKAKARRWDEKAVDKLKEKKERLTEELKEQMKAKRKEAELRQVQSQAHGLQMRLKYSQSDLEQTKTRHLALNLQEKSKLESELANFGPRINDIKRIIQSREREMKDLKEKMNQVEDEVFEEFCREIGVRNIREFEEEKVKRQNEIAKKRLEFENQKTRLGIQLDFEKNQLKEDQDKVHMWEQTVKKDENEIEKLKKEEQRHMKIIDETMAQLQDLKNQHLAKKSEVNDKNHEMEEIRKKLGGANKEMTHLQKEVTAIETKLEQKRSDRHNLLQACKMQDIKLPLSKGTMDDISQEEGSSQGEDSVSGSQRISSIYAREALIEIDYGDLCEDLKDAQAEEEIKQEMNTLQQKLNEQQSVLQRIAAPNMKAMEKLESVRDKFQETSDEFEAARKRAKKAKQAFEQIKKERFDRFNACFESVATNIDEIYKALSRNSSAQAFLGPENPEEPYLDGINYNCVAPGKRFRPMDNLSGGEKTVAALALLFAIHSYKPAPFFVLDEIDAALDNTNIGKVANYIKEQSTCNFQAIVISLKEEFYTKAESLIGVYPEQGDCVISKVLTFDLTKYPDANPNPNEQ

Test [3] deals with T3, Serine/threonine-protein kinase ULK3 (Homo sapiens, UniProt Q6PHR2).
T3 sequence (Q6PHR2 whole entry): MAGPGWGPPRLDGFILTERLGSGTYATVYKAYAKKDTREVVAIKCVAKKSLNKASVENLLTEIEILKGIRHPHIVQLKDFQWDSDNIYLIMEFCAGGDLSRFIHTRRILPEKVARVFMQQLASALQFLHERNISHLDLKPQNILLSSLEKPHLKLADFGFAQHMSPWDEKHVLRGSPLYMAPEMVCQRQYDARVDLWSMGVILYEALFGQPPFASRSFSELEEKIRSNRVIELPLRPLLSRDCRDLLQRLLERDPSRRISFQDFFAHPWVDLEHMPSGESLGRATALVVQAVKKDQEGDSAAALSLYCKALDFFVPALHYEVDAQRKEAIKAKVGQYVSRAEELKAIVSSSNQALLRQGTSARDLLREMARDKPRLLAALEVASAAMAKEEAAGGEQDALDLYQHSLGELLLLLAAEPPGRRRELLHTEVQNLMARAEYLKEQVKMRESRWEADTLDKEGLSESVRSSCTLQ

Test [4] deals with MAP/microtubule affinity-regulating kinase 3 (Homo sapiens, UniProt P27448).
Test [5] addresses TRAF2 and NCK-interacting protein kinase (Homo sapiens, UniProt Q9UKE5).
Test [6] addresses T4, Non-receptor tyrosine-protein kinase TNK1 (Homo sapiens, UniProt Q13470).
T4 sequence (Q13470 whole entry): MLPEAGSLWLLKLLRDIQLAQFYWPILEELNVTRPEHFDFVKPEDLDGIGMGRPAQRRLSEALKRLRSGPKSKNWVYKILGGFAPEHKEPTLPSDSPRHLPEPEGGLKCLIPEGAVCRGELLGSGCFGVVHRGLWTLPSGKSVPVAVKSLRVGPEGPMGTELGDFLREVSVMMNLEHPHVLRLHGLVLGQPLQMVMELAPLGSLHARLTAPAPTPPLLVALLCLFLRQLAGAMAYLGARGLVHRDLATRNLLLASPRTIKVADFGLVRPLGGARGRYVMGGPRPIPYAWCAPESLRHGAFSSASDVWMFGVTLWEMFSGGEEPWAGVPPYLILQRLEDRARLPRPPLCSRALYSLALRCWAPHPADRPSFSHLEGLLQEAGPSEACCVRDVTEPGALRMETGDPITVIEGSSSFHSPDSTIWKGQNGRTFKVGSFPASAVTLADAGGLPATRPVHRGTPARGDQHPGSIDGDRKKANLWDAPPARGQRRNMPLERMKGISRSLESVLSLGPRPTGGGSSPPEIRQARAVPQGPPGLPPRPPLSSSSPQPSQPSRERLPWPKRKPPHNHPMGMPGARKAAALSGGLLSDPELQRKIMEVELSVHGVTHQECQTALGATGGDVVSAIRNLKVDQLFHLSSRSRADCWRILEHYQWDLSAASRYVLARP

By Kd is commonly meant the concentration at which binding is half-saturated.
Note: in the data inactive means no Kd found up to 30 µM.

MAP/microtubule affinity-regulating kinase 3, sequence (P27448 whole entry): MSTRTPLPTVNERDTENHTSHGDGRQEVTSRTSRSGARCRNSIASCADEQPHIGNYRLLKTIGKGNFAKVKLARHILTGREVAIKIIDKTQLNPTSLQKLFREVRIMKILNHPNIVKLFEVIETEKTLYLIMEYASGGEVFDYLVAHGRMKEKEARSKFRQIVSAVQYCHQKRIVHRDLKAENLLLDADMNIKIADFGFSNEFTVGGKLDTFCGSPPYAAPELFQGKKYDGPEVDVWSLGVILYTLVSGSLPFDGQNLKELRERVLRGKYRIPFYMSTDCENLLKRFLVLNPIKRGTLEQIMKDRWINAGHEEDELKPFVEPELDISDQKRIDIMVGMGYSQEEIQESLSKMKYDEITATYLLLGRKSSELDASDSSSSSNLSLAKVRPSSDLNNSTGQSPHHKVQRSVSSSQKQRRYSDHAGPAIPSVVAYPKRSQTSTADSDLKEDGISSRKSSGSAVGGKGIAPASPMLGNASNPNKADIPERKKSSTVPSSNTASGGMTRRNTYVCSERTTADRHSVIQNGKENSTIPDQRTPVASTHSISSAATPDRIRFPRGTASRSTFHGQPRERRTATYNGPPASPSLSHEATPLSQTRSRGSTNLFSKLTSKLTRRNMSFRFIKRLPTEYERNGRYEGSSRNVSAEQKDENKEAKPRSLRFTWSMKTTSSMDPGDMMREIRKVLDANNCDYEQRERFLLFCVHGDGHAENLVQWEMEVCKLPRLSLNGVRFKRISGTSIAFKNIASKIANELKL
TRAF2 and NCK-interacting protein kinase, sequence (Q9UKE5 whole entry): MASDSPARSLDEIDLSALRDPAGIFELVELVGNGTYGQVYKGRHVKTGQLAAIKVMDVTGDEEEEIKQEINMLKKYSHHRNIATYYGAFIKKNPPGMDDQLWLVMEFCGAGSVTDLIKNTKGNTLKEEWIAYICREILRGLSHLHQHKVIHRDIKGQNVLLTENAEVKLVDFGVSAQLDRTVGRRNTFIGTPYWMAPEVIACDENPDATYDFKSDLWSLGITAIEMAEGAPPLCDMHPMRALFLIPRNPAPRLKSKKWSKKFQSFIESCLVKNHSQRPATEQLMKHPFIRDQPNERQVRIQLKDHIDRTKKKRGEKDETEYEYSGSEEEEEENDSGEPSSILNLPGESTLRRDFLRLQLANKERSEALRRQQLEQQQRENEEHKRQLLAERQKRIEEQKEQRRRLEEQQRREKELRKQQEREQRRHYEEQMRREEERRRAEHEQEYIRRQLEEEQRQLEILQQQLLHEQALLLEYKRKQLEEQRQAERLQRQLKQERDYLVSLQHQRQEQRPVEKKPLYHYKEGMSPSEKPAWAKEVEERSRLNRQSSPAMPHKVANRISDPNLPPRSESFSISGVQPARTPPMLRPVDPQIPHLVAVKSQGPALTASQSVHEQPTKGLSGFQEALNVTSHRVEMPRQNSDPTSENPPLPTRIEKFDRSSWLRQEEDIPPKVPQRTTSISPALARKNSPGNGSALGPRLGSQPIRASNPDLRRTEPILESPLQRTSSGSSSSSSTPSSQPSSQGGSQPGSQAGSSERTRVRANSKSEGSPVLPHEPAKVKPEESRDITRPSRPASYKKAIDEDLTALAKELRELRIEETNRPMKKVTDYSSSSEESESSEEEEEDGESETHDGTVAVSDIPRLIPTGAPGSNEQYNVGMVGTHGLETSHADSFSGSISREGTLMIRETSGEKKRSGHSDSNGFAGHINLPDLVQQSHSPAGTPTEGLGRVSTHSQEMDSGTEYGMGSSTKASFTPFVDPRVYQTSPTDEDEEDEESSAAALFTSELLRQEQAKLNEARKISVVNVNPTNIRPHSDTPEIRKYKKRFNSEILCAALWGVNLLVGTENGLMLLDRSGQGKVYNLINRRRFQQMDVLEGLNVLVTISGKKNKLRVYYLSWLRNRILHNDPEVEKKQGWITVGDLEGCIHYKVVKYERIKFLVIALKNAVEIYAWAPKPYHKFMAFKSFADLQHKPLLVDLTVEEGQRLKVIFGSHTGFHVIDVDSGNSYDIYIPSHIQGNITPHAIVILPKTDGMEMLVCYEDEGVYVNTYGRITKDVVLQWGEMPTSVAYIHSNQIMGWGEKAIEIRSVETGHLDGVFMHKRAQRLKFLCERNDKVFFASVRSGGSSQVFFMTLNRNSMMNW

In the case of `CCc1nc(C(N)=O)c(Nc2ccc(N3CCC(N4CCN(C)CC4)CC3)c(OC)c2)nc1NC1CCOCC1` [GILTERITINIB], the Kd is > 30 µM (inactive) in test [1]; > 30 µM (inactive) in test [2]; 0.006 µM (active) in test [3]; > 30 µM (inactive) in test [4]; > 30 µM (inactive) in test [5]; 0.039 µM (active) in test [6].
For `Cc1cc(Nc2nc(N[C@@H](C)c3ncc(F)cn3)ncc2Cl)n[nH]1` [AZD-1480], the Kd in test [1] is > 30 µM (inactive); in test [2], > 30 µM (inactive); in test [3] it was > 30 µM (inactive); in test [4] it was > 30 µM (inactive); in test [5], > 30 µM (inactive); in test [6], 1.26 µM (active).
In the case of `Cc1ccc(C(=O)Nc2ccc(Oc3cc4cnn(C)c4cc3-c3cn[nH]c3)c(F)c2)c(=O)n1-c1ccc(F)cc1` [MERESTINIB], the Kd in test [1], in test [2], in test [3], in test [4], in test [5] and in test [6] was > 30 µM (inactive) each time.
With `C#Cc1cccc(Nc2ncnc3cc4c(cc23)OCCOCCOCCO4)c1` [ICOTINIB], the Kd in test [1], in test [2], in test [3], in test [4], in test [5] and in test [6] was > 30 µM (inactive) each time.
For `C=CCn1c(=O)c2cnc(Nc3ccc(N4CCN(C)CC4)cc3)nc2n1-c1cccc(C(C)(C)O)n1` [ADAVOSERTIB], the Kd in test [2], in test [3], in test [4], in test [5] and in test [6] was > 30 µM (inactive) in each case.
As for `O[C@H]1CC[C@H](Nc2ncc3nc(Nc4c(F)cc(F)cc4F)n([C@H]4CCOC4)c3n2)CC1` [TANZISERTIB], the Kd in test [1], in test [2], in test [3], in test [4], in test [5] and in test [6] was > 30 µM (inactive) each time.
`FC(F)(F)c1ccc(CNc2ccc(Cc3c[nH]c4ncc(Cl)cc34)cn2)cn1` [PEXIDARTINIB]: the Kd in test [1], in test [2], in test [3], in test [4], in test [5] and in test [6] was > 30 µM (inactive) throughout.
Consider `COc1cc2ncnc3c2cc1OCCCCCN(C)Cc1ccc(Br)cc1N3` [JNJ-26483327], for which the Kd in test [1], in test [2], in test [3], in test [4], in test [5] and in test [6] was > 30 µM (inactive) throughout.
On to `CNC(=O)c1cccc(-c2ccc3c(N4CCOC[C@@H]4C)nc(N4CCOC[C@@H]4C)nc3n2)c1` [VISTUSERTIB], for which the Kd in test [1], in test [2], in test [3], in test [4], in test [5] and in test [6] was > 30 µM (inactive) each time.
As for `CC1(COc2ccc3c(c2)ncn3-c2ccc3cccc(N4CCC(N)CC4)c3n2)COC1` [CRENOLANIB], the Kd in test [1] was > 30 µM (inactive); in test [2], > 30 µM (inactive); in test [3] it was > 30 µM (inactive); in test [4] it was 0.22 µM (active); in test [5] it was 0.107 µM; in test [6], > 30 µM (inactive).
For the compound `O=S(=O)(c1cccc2cnccc12)N1CCCNCC1` [FASUDIL], the Kd in test [1], in test [2], in test [3], in test [4], in test [5] and in test [6] was > 30 µM (inactive) in each case.
For `NC(=O)c1ccc(N(C(N)=O)c2c(F)cccc2F)nc1-c1ccc(F)cc1F` [VX-702], the Kd in test [1], in test [2], in test [3], in test [4], in test [5] and in test [6] was > 30 µM (inactive) in each case.
Consider `Cc1cc(-c2cc(OC(=O)c3ccccc3)ccc2Cl)cc2nnc(Nc3ccc(OCCN4CCCC4)cc3)nc12` [TG100-801], for which the Kd in test [1], in test [2], in test [3], in test [4], in test [5] and in test [6] was > 30 µM (inactive) each time.
As to `O=C(Nc1ccc(OC(F)(F)F)cc1)c1sccc1NCc1ccnc2ccccc12` [OSI-930], the Kd in test [1], in test [2], in test [3], in test [4], in test [5] and in test [6] was > 30 µM (inactive) throughout.
For `CNC(=O)c1ccc(Nc2ncc(C(F)(F)F)c(NCc3nccnc3N(C)S(C)(=O)=O)n2)cc1` [DEFACTINIB], the Kd in test [1] was > 30 µM (inactive); in test [2], > 30 µM (inactive); in test [3] it was > 30 µM (inactive); in test [4], 4.49 µM (active); in test [5], > 30 µM (inactive); in test [6] it was 11.3 µM (active).
